The source of these data is patent US20240246979A1, “cGAS INHIBITORS” (Eli Lilly and Company, priority 2022, published 2024).

In test [1] the target is T1, cGAS (Homo sapiens, UniProt Q8N884). Put plainly: In vitro inhibition assay of cGAS activity (cGAMP production, RapidFire mass spectrometry). Type of test: biochemical. Set-up: Insert cDNA encoding full-length of human cGAS; His6; made in house; host or cells: E. coli BL21(DE3). As to conditions: 10 nM recombinant human cGAS, 60 nM 75-bp dsDNA, 50 μM ATP, 50 μM GTP, 3 hrs. Summed up: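 His6-tagged full-length human cGAS (10 nM, E. coli-expressed) was incubated for 3 hrs at ambient temperature with 60 nM 75-bp dsDNA, 50 μM ATP and 50 μM GTP in Tris pH 7.5/MgCl2 buffer with compound dilutions. cGAMP was quantified by RapidFire mass spectrometry against an internal standard, and IC50 was obtained by 4-parameter logistic fit.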
T1 sequence (Q8N884 whole entry): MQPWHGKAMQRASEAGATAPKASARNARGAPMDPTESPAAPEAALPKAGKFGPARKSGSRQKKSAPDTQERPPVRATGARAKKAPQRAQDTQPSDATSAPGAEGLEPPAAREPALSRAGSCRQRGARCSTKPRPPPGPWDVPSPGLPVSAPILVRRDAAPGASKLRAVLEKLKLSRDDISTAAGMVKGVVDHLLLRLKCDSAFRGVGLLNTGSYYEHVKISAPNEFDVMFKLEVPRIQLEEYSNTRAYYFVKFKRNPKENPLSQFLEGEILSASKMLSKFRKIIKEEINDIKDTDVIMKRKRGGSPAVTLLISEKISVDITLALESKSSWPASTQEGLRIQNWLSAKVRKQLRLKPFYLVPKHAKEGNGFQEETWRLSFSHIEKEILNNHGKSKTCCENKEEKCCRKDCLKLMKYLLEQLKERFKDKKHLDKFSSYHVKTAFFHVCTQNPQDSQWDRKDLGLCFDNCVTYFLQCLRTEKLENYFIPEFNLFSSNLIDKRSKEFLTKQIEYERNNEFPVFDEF

The target of test [2] is T1, cGAS. Put plainly: Cellular assay to measure cGAS activity (IFNb AlphaLISA in THP1 cells stimulated by RDG-Adenovirus-GFP). In kind it is cell-based. Set-up: host or cells: THP1 cells differentiated with PMA and stimulated with RDG-Adenovirus-GFP. As to conditions: PMA-differentiated THP1 cells, RDG-Adenovirus-GFP at 1000 MOI; inhibition of IFNb production as marker for cGAS activity. The essentials: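 PMA-differentiated THP1 cells were infected with RDG-Adenovirus-GFP at 1000 MOI for 4 h, then exposed overnight to test compounds. IFNb in the supernatant was quantified by AlphaLISA as a cGAS activity marker, and IC50 was fitted with a 4-parameter logistic equation.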

The IC50 is the concentration that gives 50% inhibition. On to `CCC1CNC(=O)Cc2c1[nH]c1c(Cl)c(Cl)cc(NCCO)c21` (stereo not drawn) [Example 163, 7,8-Dichloro-5-ethyl-10-((2-hydroxyethyl)amino)-3,4,5,6-tetrahydroazepino[4,5-b]indol-2(1H)-one], for which the IC50 was 23.1 nM at cGAS [1] and 1620 nM against cGAS [2].
On the same counts, the results for `CCCC1CNC(=O)Cc2c1[nH]c1c(Cl)c(Cl)cc(-c3cnn(C)n3)c21` (stereo not drawn) [Example 164, 7,8-Dichloro-10-(2-methyl-2H-1,2,3-triazol-4-yl)-5-propyl-3,4,5,6-tetrahydroazepino[4,5-b]indol-2(1H)-one] are 18.9 nM and 1380 nM.
In the case of `CC1Cc2[nH]c3c(Cl)c(Cl)cc(NCCO)c3c2CC(=O)N1` (stereo not drawn) [Example 165, 7,8-Dichloro-10-((2-hydroxyethyl)amino)-4-methyl-3,4,5,6-tetrahydroazepino[4,5-b]indol-2(1H)-one], the half-maximal inhibitory concentration (IC50) is 44.2 nM at cGAS [1] and 1730 nM against cGAS [2].
As to `COC(=O)CC1CNC(=O)Cc2c1[nH]c1c(Cl)c(Cl)cc(CC#N)c21` (stereo not drawn) [Example 176, Methyl 2-(7,8-dichloro-10-(cyanomethyl)-2-oxo-1,2,3,4,5,6-hexahydroazepino[4,5-b]indol-5-yl)acetate], the IC50 worked out at 38.9 nM on cGAS [1] and 7110 nM against cGAS [2].
Consider `CC1C(=O)NCCc2[nH]c3c(Cl)c(Cl)cc(OC[C@H]4CCO4)c3c21` (stereo partly drawn) [Example 180, 7,8-Dichloro-1-methyl-10-(((R)-oxetan-2-yl)methoxy)-3,4,5,6-tetrahydroazepino[4,5-b]indol-2(1H)-one], for which the IC50 on cGAS [1] turned out to be 23.7 nM; against cGAS [2] it was 793 nM.
In the case of `CC1C(=O)NCCc2[nH]c3c(Cl)c(Cl)cc(OC4COC4)c3c21` (stereo not drawn) [Example 183, 7,8-Dichloro-1-methyl-10-(oxetan-3-yloxy)-3,4,5,6-tetrahydroazepino[4,5-b]indol-2(1H)-one], the IC50 was determined as 40.9 nM on cGAS [1] and 1850 nM against cGAS [2].
